Source: patent publication US20250230159A1, “FUSED HETEROCYCLIC COMPOUNDS AS MODULATORS OF RAS SIGNALLING” (Shenzhen Ionova Life Science Co., Ltd., priority 2022, published 2025)
Read-outs that look alike come from different tables or passages of the source.

Columns and labels:
[1] = molecular target: KRAS-G12C/SOS1 interaction (Homo sapiens (Human), UniProt Q07889); assay: Protein-Protein Interaction (PPI) assay, SOS1-KRAS binding assay kit (HTRF)
pERK in Hela cells = assay: Phospho-ERK (p-ERK) assay in Hela cells; assay type: cell-based; details: β-actin normalized
Experimental: This Example illustrates that exemplary compounds of the present invention prevent KRas-mediated GTP nucleotide exchange mediated by SOS1 to inhibit KRas activity, thereby inhibiting the generation of the downstream effector pERK.
Hela cells (23,000/w) were seeded in a black clear flat bottom 96-well cell culture plate (Corning, #3904) and incubated at 37° C. overnight. At day 2, cells were dosed with compounds of Formula (I) with a 10 μM starting concentration and serially diluted 3× for a total of 9 concentrations. The cells were incubated for 1 hour with the compounds solubilized in DMSO at 37° C. Cells were immediately fixed by adding 100 μL of 8% formaldehyde to all wells in a fume hood and the plates were incubated for 1 hr at room temperature. The formaldehyde was discarded from the plates and washed 5 times and each time for 5 min with 200 μL of Triton Washing Solution (0.1% Triton in PBS) each time to permeabilize the cells. Cells were then blocked with 150 μL of Odyssey blocking buffer (LI-COR Biosciences #927-50010) at room temperature on a shaker. The blocking buffer was discarded and 50 μL of primary antibodies pERK (cell signaling Technology #4370; Rabbit, 1:500) and β-actin (AF5001; Mouse, 1:2000) diluted in Odyssey blocking buffer was added. The plates were incubated overnight at 4° C. on a shaker.
On day 3, the primary antibody solution was removed. Each plate was washed 5× times with 200 μL of 1×PBST (PBS+0.1% Tween 20) and incubated with 50 μL of secondary antibodies: Anti-Rabbit (LI-COR Biosciences #926-32211) and Anti-Mouse (LI-COR Biosciences #68070) at 1:1000 dilution in Odyssey blocking buffer at room temperature on a shaker for 1 hour (protected from light). The secondary antibody solution as removed and each plate was washed with PBST 5× times. Any liquid remaining was discarded and the plate was imaged using the Licor Odyssey machine according to the manufacturer's instruction, using a set focus length at 3.5 mm and both 800 nm and 700 nm filters. The 3-actin normalized scan values for each well were divided by the average of vehicle wells to get the % of p-ERK inhibition. The IC50 values were then calculated with the Graph pad Prism software. In general, p-ERK IC50 data are in line with the PPI IC50 data.

[2] = Homo sapiens, Table 1, 1 hour with compound
[3] = Homo sapiens, Table 2, 1 hour with compound

KRAS-G12C/SOS1 interaction, sequence (Q07889 whole entry, stated change not applied): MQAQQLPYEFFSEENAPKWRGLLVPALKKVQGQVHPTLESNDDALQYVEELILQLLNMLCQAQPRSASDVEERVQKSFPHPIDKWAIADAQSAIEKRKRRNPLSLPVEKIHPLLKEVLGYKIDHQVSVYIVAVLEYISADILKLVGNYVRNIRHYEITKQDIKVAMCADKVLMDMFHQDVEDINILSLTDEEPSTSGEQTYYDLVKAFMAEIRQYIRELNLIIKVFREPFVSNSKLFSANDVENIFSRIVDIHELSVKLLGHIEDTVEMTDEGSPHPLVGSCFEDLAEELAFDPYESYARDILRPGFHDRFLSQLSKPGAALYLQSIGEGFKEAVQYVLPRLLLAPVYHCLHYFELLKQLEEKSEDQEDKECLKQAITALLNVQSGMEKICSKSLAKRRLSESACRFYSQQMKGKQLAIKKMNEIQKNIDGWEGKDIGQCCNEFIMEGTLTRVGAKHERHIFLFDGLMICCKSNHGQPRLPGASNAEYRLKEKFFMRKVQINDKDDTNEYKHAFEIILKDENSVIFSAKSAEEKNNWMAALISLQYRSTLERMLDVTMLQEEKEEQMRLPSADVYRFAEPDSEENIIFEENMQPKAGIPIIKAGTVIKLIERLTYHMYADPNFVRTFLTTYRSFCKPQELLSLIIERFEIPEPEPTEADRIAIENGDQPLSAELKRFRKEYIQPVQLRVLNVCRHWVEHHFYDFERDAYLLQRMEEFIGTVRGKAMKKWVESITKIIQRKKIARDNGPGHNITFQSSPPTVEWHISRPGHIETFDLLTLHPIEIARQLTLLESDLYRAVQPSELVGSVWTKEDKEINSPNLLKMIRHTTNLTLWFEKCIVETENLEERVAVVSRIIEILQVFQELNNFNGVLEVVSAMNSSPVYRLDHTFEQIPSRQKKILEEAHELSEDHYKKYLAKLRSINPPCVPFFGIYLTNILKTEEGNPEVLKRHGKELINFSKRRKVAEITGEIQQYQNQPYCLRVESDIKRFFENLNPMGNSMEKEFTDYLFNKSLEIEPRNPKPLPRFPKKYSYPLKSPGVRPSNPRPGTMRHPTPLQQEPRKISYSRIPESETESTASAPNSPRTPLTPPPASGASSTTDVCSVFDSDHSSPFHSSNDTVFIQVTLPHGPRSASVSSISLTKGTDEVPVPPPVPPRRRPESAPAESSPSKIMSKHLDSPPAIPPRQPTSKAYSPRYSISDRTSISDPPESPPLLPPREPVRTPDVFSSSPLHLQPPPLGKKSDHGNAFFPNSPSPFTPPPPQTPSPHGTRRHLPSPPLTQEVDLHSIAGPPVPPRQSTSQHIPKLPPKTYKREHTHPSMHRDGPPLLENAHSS

| Compound | IC50 ([1]; read-out: PPI Assay IC50) [nM] | IC50 (pERK in Hela cells; [2]) [nM] | other results |
| --- | --- | --- | --- |
| CC(=O)N1CCC(C)(c2cc3c(N[C@H](C)c4cccc(C(F)F)c4F)nc(C)nc3n3cnnc23)CC1 [Example 127, (R)-1-(4-(4-((1-(3-(difluoromethyl)-2-fluorophenyl)ethyl)amino)-2-methyl-[1,2,4]triazolo[4′,3′:1,6]pyrido[2,3-d]pyrimidin-6-yl)-4-methylpiperidin-1-yl)ethan-1-one] | < 100 | < 100 | – |
| Cc1nc(N[C@H](C)c2cccc(C(F)F)c2F)c2cc(N3CCS(=O)(=O)CC3)c3nnnn3c2n1 [Example 93] | < 100 | > 100 | – |
| CC(=O)N1CCC(c2cc3c(N[C@H](C)c4cccc(C(F)F)c4F)nc(C)nc3n3nnnc23)CC1 [Example 142] | < 100 | > 100 | – |
| CC(=O)N1CCN(c2cc3c(N[C@H](C)c4cccc(C(F)F)c4F)nc(C)nc3n3nnnc23)CC1 [Example 92] | < 100 | < 100 | – |
| Cc1nc2c(N3CCOCC3)cc3c(N[C@H](C)c4cccc(C(F)F)c4F)ncnc3n2n1 [Example 154] | < 100 | < 100 | – |
| Cc1nc(N[C@H](C)c2cccc(C(F)F)c2F)c2cc(C(=O)N3CC4(COC4)C3)c3nnnn3c2n1 [Example 62] | – | – | IC50 ([1]; Table 1 (PPI IC50 < 100 nM), Tag1-SOS1 / Tag2-KRAS-G12C, HTRF, 10 μM GTP, read-out: PPI Assay IC50): < 100 nM; IC50 (pERK in Hela cells; Table 1, 1 hour with compound): > 100 nM |
| Cc1nc(N[C@H](C)c2cccc(C(F)F)c2F)c2cc(C(=O)N3[C@@H](C)COC[C@@H]3C)c3ncnn3c2n1 [Example 13] | < 100 | < 100 | – |
| Cc1nc(N[C@H](C)c2cccc(C(F)F)c2F)c2cc(C(=O)N3CCN(C4COC4)CC3)c3ncnn3c2n1 [Example 24] | < 100 | > 100 | – |
| COC1(c2cc3c(N[C@H](C)c4cccc(C(F)F)c4F)ncnc3n3cnnc23)CCS(=O)(=O)CC1 [Example 121] | < 100 | < 100 | – |
| CC(=O)N1CCC(F)(c2cc3c(N[C@H](C)c4cccc(C(F)F)c4F)ncnc3n3nnnc23)CC1 [Example 117] | < 100 | < 100 | – |
| CC(=O)N1CCC(F)(c2cc3c(N[C@H](C)c4cccc(C(F)F)c4F)nc(C)nc3n3nnnc23)CC1 [Example 116] | < 100 | < 100 | – |
| CC(=O)N1CCC(F)(c2cc3c(N[C@H](C)c4cccc(C(F)F)c4F)nc(C)nc3n3cnnc23)C1 (some centres unmarked) [Example 115] | < 100 | > 100 | – |
| Cc1nc(N[C@H](C)c2cc(N)cc(C(F)(F)F)c2)c2cc(N3CCOCC3)c3nncn3c2n1 [Example 85] | < 100 | < 100 | – |
| C[C@@H](Nc1ncnc2c1cc(N1CCOCC1)c1nncn12)c1cccc(C(F)F)c1F [Example 79] | < 100 | < 100 | – |
| Cc1nc2c(N3CC4(COC4)C3)cc3c(N[C@H](C)c4cccc(C(F)F)c4F)ncnc3n2n1 [Example 174] | < 100 | < 100 | – |
| C[C@@H](Nc1ncnc2c1cc(C1(C(F)(F)F)CC1)c1nncn12)c1cccc(C(F)F)c1F [Example 172] | < 100 | < 100 | – |
| C[C@@H](Nc1ncnc2c1cc(C1(C)CCOCC1)c1nncn12)c1cc(N)cc(C(F)(F)F)c1 [Example 130] | < 100 | > 100 | – |
| CC(=O)N1CCC(F)(c2cc3c(N[C@H](C)c4cccc(C(F)F)c4F)nc(C)nc3n3cnnc23)CC1 [Example 114, (R)-1-(4-(4-((1-(3-(difluoromethyl)-2-fluorophenyl)ethyl)amino)-2-methyl-[1,2,4]triazolo[4′,3′:1,6]pyrido[2,3-d]pyrimidin-6-yl)-4-fluoropiperidin-1-yl)ethan-1-one] | < 100 | < 100 | – |
| C[C@@H](Nc1ncnc2c1cc(N1CCOC[C@@H]1C)c1nncn12)c1cc(N)cc(C(F)(F)F)c1 [Example 159] | < 100 | > 100 | – |
| Cc1nc(N[C@H](C)c2cccc(C(F)F)c2F)c2cc(C(=O)N3CCC4(COC4)C3)c3ncnn3c2n1 [Example 33] | < 100 | > 100 | – |

| Compound | IC50 ([1]; read-out: PPI Assay IC50) [nM] | IC50 (pERK in Hela cells; [2]) [nM] | other results |
| --- | --- | --- | --- |
| CCOC(=O)c1cc2c(N[C@H](C)c3cc(N)cc(C(F)(F)F)c3)nc(C)nc2n2ncnc12 [Example 1, Ethyl (R)-6-((1-(3-amino-5-(trifluoromethyl)phenyl)ethyl)amino)-8-methyl-[1,2,4]triazolo[1′,5′:1,6]pyrido[2,3-d]pyrimidine-4-carboxylate] | – | – | IC50 [1]: > 100 nM; IC50 (pERK in Hela cells; [3]): > 100 nM |
| Cc1nc(N[C@H](C)c2cccc(C(F)F)c2F)c2cc(N3CCS(=O)(=O)CC3)c3nncn3c2n1 [Example 76] | < 100 | > 100 | – |
| Cc1nc(N[C@H](C)c2cccc(C(F)F)c2F)c2cc(C3=CC[S+]([O-])CC3)c3nncn3c2n1 (stereo partly drawn) [Example 149, 4-(4-(((R)-1-(3-(difluoromethyl)-2-fluorophenyl)ethyl)amino)-2-methyl-[1,2,4]triazolo[4′,3′:1,6]pyrido[2,3-d]pyrimidin-6-yl)-3,6-dihydro-2H-thiopyran 1-oxide] | – | – | IC50 [1]: > 100 nM; IC50 (pERK in Hela cells; [3]): > 100 nM |
| CC(=O)N1CCC(O)(c2cc3c(N[C@H](C)c4cccc(C(F)F)c4F)ncnc3n3c(C(F)(F)F)nnc23)CC1 [Example 135, (R)-1-(4-(4-((1-(3-(difluoromethyl)-2-fluorophenyl)ethyl)amino)-9-(trifluoromethyl)-[1,2,4]triazolo[4′,3′:1,6]pyrido[2,3-d]pyrimidin-6-yl)-4-hydroxypiperidin-1-yl)ethan-1-one] | < 100 | > 100 | – |
| Cc1nc(N[C@H](C)c2cccc(C(F)F)c2F)c2cc(N3CCOCC3=O)c3nncn3c2n1 [Example 163] | < 100 | < 100 | – |
| C[C@@H](Nc1ncnc2c1cc(C(=O)N1CC3(COC3)C1)c1ncnn12)c1cccc(C(F)F)c1F [Example 42] | < 100 | > 100 | – |
| CC(=O)N1CC=C(c2cc3c(N[C@H](C)c4cccc(C(F)F)c4F)ncnc3n3cnnc23)CC1 [Example 101] | < 100 | < 100 | – |
| COC1(c2cc3c(N[C@H](C)c4cccc(C(F)F)c4F)nc(C)nc3n3c(C)nnc23)CCN(C(C)=O)CC1 [Example 124] | < 100 | < 100 | – |
| Cc1nc(N[C@H](C)c2cccc(C(F)F)c2F)c2cc(C3CC[S+]([O-])CC3)c3nncn3c2n1 (some centres unmarked) [Example 150] | < 100 | > 100 | – |
| COCC(=O)N1CCC(c2cc3c(N[C@H](C)c4cc(N)cc(C(F)(F)F)c4)nc(C)nc3n3nnnc23)CC1 [Example 147] | < 100 | > 100 | – |
| COCC(=O)N1CCC(c2cc3c(N[C@H](C)c4cccc(C(F)F)c4F)ncnc3n3nnnc23)CC1 [Example 148] | < 100 | > 100 | – |
| CC(=O)N1CCC(c2cc3c(N[C@H](C)c4cccc(C(F)F)c4F)ncnc3n3cnnc23)CC1 [Example 136, (R)-1-(4-(4-((1-(3-(difluoromethyl)-2-fluorophenyl)ethyl)amino)-[1,2,4]triazolo[4′,3′:1,6]pyrido[2,3-d]pyrimidin-6-yl)piperidin-1-yl)ethan-1-one] | < 100 | > 100 | – |
| Cc1nc(N[C@H](C)c2cccc(C(F)F)c2F)c2cc(C(=O)N3CC4CC(C3)O4)c3ncnn3c2n1 [Example 35] | < 100 | > 100 | – |
| C[C@@H](Nc1ncnc2c1cc(N1CCOCC1)c1nnnn12)c1cccc(C(F)F)c1F [Example 98] | < 100 | < 100 | – |
| Cc1nc(N[C@H](C)c2cccc(C(F)F)c2F)c2cc(C(=O)N3CCOCC3)c3nnnn3c2n1 [Example 58] | < 100 | < 100 | – |
| C[C@@H](Nc1ncnc2c1cc(C1CCN(S(C)(=O)=O)CC1)c1nnnn12)c1cccc(C(F)F)c1F [Example 146] | < 100 | < 100 | – |
| CC(=O)N1CCC(O)(c2cc3c(N[C@H](C)c4cccc(C(F)F)c4F)nc(C)nc3n3nnnc23)CC1 [Example 112] | < 100 | > 100 | – |
| Cc1nc(N[C@H](C)c2cccc(C(F)F)c2F)c2cc(C3=CCS(=O)(=O)CC3)c3nncn3c2n1 [Example 151, (R)-4-(4-((1-(3-(difluoromethyl)-2-fluorophenyl)ethyl)amino)-2-methyl-[1,2,4]triazolo[4′,3′:1,6]pyrido[2,3-d]pyrimidin-6-yl)-3,6-dihydro-2H-thiopyran 1,1-dioxide] | < 100 | > 100 | – |
| CC(=O)N1CCC(C)(c2cc3c(N[C@H](C)c4cccc(C(F)F)c4F)nc(C)nc3n3nnnc23)CC1 [Example 131] | < 100 | < 100 | – |
| Cc1nc(N[C@H](C)c2cccc(C(F)F)c2F)c2cc(C(=O)N3C[C@H]4COC[C@H]4C3)c3ncnn3c2n1 [Example 29] | < 100 | < 100 | – |
